The record followed here is ChEMBL document CHEMBL1201862, “PubChem BioAssay data set” (2004).

Among the test systems are SF-539; OVCAR-5; HT-29; EKVX; HCT-116; KM12; TK-10; M14; UACC-62; SK-MEL-2; SR; MCF7; MDA-MB-231; SF-268; BT-549; SK-MEL-5; DU-145; HCC 2998; HOP-92.
Common to all, as to assay: NCI anticancer screen, dose series, 48 h

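Five compound concentrations were applied to cells in 96-well plates for 48 hours; endpoints were derived by simple linear interpolation of the resulting dose-response curve. GI50 marks 50% less growth.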 Active and inactive are the calls of the source. No stated cut-off is given here; in the data, active = GI50 up to about 1.1 µM and inactive = higher.

For `COc1cccc(/N=N/C(=N/NC(=O)c2cc(Cl)ccc2O)c2ccc(N(CCC#N)CCC#N)cc2C)c1`, the GI50 in the assay on SF-539 was 18.4 µM (inactive); with OVCAR-5 it was > 100 µM (inactive); in the assay with HT-29, 5.85 µM (inactive); in the assay on EKVX it was 20.3 µM (inactive); in the assay on HCT-116 it was 18.8 µM (inactive); in the assay on KM12, 28.5 µM (inactive). Moreover, the GI50 with TK-10 is 48.8 µM (inactive); in the assay with M14 it was 42.3 µM (inactive); with UACC-62, 44.6 µM (inactive); in the assay with SK-MEL-2 it was 57 µM (inactive); in the assay on SR, 21.2 µM (inactive); in the assay with MCF7, 7.8 µM (inactive). For the same compound, the GI50 in the assay with MDA-MB-231 was 35.1 µM (inactive); in the assay on SF-268, 47.1 µM (inactive); in the assay on BT-549, 34.3 µM (inactive); in the assay with SK-MEL-5, 29.9 µM (inactive); with DU-145, 43.4 µM (inactive); with HCC 2998, 23.6 µM (inactive).
Turning to `O=C1c2cc(Cl)ccc2N=C(NC2CCCC2)C2CSCN12` (centres undefined), the GI50 is > 100 µM (inactive) with OVCAR-5; 28.9 µM (inactive) in the assay on HT-29; 46.6 µM (inactive) with EKVX; > 100 µM (inactive) in the assay on HCT-116; 35.7 µM (inactive) with KM12; > 100 µM (inactive) in the assay with TK-10. Besides, the GI50 in the assay on M14 was 91.2 µM (inactive); in the assay with UACC-62, > 100 µM (inactive); in the assay with SK-MEL-2, 36.2 µM (inactive); in the assay with SR, 41.5 µM (inactive); in the assay on MCF7 it was > 100 µM (inactive); in the assay on MDA-MB-231 it was > 100 µM (inactive). Further, the GI50 with SF-268 is 66.5 µM (inactive); in the assay with BT-549, > 100 µM (inactive); with SK-MEL-5, 46.1 µM (inactive); in the assay with DU-145 it was > 100 µM (inactive); in the assay on HCC 2998 it was > 100 µM (inactive).
Take `O=c1[nH]c2ccc([N+](=O)[O-])c(Cl)c2c2ccccc12`: the GI50 with SF-539 was 1.1 µM (active); in the assay on OVCAR-5, 5.04 µM (inactive); with HT-29, 0.887 µM (active); in the assay on EKVX it was 5.9 µM (inactive); with HCT-116, 0.313 µM (active); in the assay on KM12, 0.33 µM (active). Moreover, the GI50 in the assay on TK-10 is 1.37 µM (inactive); with M14 it was 4.81 µM (inactive); in the assay on UACC-62, 3.79 µM (inactive); in the assay on SK-MEL-2, 6.1 µM (inactive); in the assay on SR it was 1.85 µM (inactive); in the assay on MCF7, 0.258 µM (active). The GI50 in the assay with MDA-MB-231 is 8.07 µM (inactive); in the assay on SF-268, 2.74 µM (inactive); in the assay with BT-549 it was 4.04 µM (inactive); in the assay with SK-MEL-5, 3.84 µM (inactive); in the assay on DU-145 it was 3.06 µM (inactive); in the assay on HCC 2998, 5.46 µM (inactive).
Consider `CC(C)=CCNc1ncnc2[nH]cnc12`, for which the GI50 with SF-539 is > 100 µM (inactive); in the assay with OVCAR-5, > 100 µM (inactive); in the assay with HT-29 it was > 100 µM (inactive); with EKVX, > 100 µM (inactive); in the assay on HCT-116, > 100 µM (inactive); in the assay with KM12 it was 99.8 µM (inactive). Further, the GI50 is > 100 µM (inactive) in the assay with TK-10; > 100 µM (inactive) with M14; 88.5 µM (inactive) in the assay with UACC-62; > 100 µM (inactive) in the assay on SK-MEL-2; > 100 µM (inactive) in the assay with SR; > 100 µM (inactive) in the assay with MCF7. Further, the GI50 with MDA-MB-231 was > 100 µM (inactive); in the assay with SF-268, > 100 µM (inactive); in the assay with BT-549, > 100 µM (inactive); with HOP-92 it was > 100 µM (inactive); with SK-MEL-5, 87.7 µM (inactive); in the assay with DU-145, > 100 µM (inactive).
For `COc1cccc(C23CCCC(C2)NCC3Br)c1OC` (centres undefined), the GI50 in the assay with OVCAR-5 was 56.2 µM (inactive); with HT-29, 37.3 µM (inactive); in the assay with EKVX, 28.4 µM (inactive); with HCT-116, 30.8 µM (inactive); with KM12, 35.1 µM (inactive); in the assay with TK-10, 36.9 µM (inactive). For the same compound, the GI50 in the assay with M14 is 34.4 µM (inactive); with UACC-62, 21.4 µM (inactive); in the assay on SK-MEL-2 it was > 100 µM (inactive); in the assay with SR it was 31.3 µM (inactive); in the assay with MCF7, 21.6 µM (inactive); in the assay with MDA-MB-231, > 100 µM (inactive). In addition, the GI50 with SF-268 is 23 µM (inactive); in the assay with BT-549, 15.6 µM (inactive); in the assay on HOP-92, 27.9 µM (inactive); in the assay with SK-MEL-5, 2.55 µM (inactive); with DU-145 it was 53.8 µM (inactive).
For the compound `CCN(CCO)CC1CCCC2CCCCC21` (centres undefined), the GI50 in the assay with SF-539, with OVCAR-5, in the assay with HT-29, in the assay with EKVX, in the assay with HCT-116 and in the assay on KM12 was > 100 µM (inactive) in each case. Moreover, the GI50 in the assay on TK-10, with M14, in the assay with UACC-62, in the assay with SK-MEL-2, in the assay with MCF7 and in the assay with MDA-MB-231 was > 100 µM (inactive) throughout. The GI50 in the assay with SF-268, in the assay on BT-549, in the assay with HOP-92, in the assay on SK-MEL-5, in the assay with DU-145 and with HCC 2998 was > 100 µM (inactive) in each case.
With `CCOC(=O)c1c(N)n(-c2ccccc2)c(=O)n(-c2ccccc2)c1=O`, the GI50 in the assay with OVCAR-5, with HT-29, with KM12, in the assay with TK-10, in the assay with M14 and with UACC-62 was > 100 µM (inactive) each time. For the same compound, the GI50 in the assay with SK-MEL-2, in the assay on SR, in the assay with MCF7, in the assay with MDA-MB-231, in the assay on SF-268 and with BT-549 was > 100 µM (inactive) in each case. Also, the GI50 in the assay with HOP-92, with SK-MEL-5, with DU-145 and in the assay on HCC 2998 was > 100 µM (inactive) each time.
`O=[N+]([O-])C1=Cc2cc(Cl)ccc2OC1c1cccc2ccccc12` (centres undefined): the GI50 in the assay with OVCAR-5 is 1.99 µM (inactive); with HT-29, 0.637 µM (active); in the assay on EKVX, 1.27 µM (inactive); in the assay on HCT-116, 0.187 µM (active); in the assay with KM12 it was 1.79 µM (inactive); in the assay on TK-10 it was 1.27 µM (inactive). For the same compound, the GI50 is 1.23 µM (inactive) with M14; 1.57 µM (inactive) with UACC-62; 1.36 µM (inactive) in the assay with SK-MEL-2; 0.224 µM (active) in the assay with SR; 0.521 µM (active) in the assay on MCF7; 1.77 µM (inactive) in the assay with MDA-MB-231. Moreover, the GI50 was 1.26 µM (inactive) with SF-268; 0.436 µM (active) in the assay on BT-549; 1.34 µM (inactive) in the assay with HOP-92; 1.26 µM (inactive) with SK-MEL-5; 1.91 µM (inactive) in the assay with DU-145; 0.984 µM (active) with HCC 2998.
In the case of `O=C(c1ccc(Cl)c(Cl)c1)N(C(=S)OC12CC3CC(CC(C3)C1)C2)c1ccccc1`, the GI50 with SF-539 is 36.6 µM (inactive); in the assay with OVCAR-5, 18.7 µM (inactive); with HT-29, 29.6 µM (inactive); in the assay on EKVX, 20.8 µM (inactive); in the assay with HCT-116 it was 24.8 µM (inactive); in the assay on KM12, 33.7 µM (inactive). The GI50 in the assay with TK-10 was 66.8 µM (inactive); in the assay on M14, 20.8 µM (inactive); with UACC-62 it was 25.1 µM (inactive); in the assay with SK-MEL-2 it was 20 µM (inactive); with MCF7 it was 28 µM (inactive); in the assay with MDA-MB-231, 38.3 µM (inactive). The GI50 in the assay with SF-268 was 40.4 µM (inactive); in the assay with BT-549 it was 36 µM (inactive); in the assay on HOP-92 it was 31.8 µM (inactive); with SK-MEL-5, 19.5 µM (inactive); with DU-145, 83.2 µM (inactive); in the assay with HCC 2998 it was 43.3 µM (inactive).
For the compound `COc1cc2c(cc1OCCCCOc1cc3nc(C)nc(Cl)c3cc1OC)N=C[C@@H]1CCCN1C2=O`, the GI50 is 2.04 µM (inactive) with SF-539; 2 µM (inactive) in the assay on OVCAR-5; 2.42 µM (inactive) in the assay on HT-29; 4.73 µM (inactive) with EKVX; 2.21 µM (inactive) with HCT-116; 1.89 µM (inactive) with KM12. Besides, the GI50 in the assay on TK-10 was 2.34 µM (inactive); in the assay with M14, 1.88 µM (inactive); in the assay with UACC-62, 1.48 µM (inactive); in the assay on SK-MEL-2, 1.95 µM (inactive); in the assay on SR, 0.57 µM (active); in the assay on MCF7, 3.03 µM (inactive). Besides, the GI50 in the assay with MDA-MB-231 was 1.25 µM (inactive); in the assay with SF-268, 2.74 µM (inactive); in the assay with BT-549, 2.17 µM (inactive); with HOP-92 it was 2.02 µM (inactive); in the assay on SK-MEL-5, 1.77 µM (inactive); in the assay with DU-145, 3.22 µM (inactive).
On to `CC1CCc2sc3nc4n(c(=O)c3c2C1)CC(C)S4` (centres undefined), for which the GI50 was 27 µM (inactive) in the assay with OVCAR-5; 15.8 µM (inactive) with HT-29; 15.1 µM (inactive) with EKVX; 23.3 µM (inactive) with HCT-116; 28.3 µM (inactive) in the assay with KM12; 25.1 µM (inactive) with TK-10. The GI50 in the assay on M14 is 25.4 µM (inactive); in the assay on UACC-62 it was 16.2 µM (inactive); in the assay with SK-MEL-2, 19.5 µM (inactive); with SR, 26.2 µM (inactive); in the assay on MCF7 it was 24 µM (inactive); in the assay with MDA-MB-231, 20.4 µM (inactive). The GI50 is 33.6 µM (inactive) in the assay on SF-268; 27.5 µM (inactive) in the assay with BT-549; 26.1 µM (inactive) with HOP-92; 18.9 µM (inactive) in the assay on SK-MEL-5; 28.3 µM (inactive) with DU-145; 19.7 µM (inactive) in the assay on HCC 2998.
